In patent US12312359B2 (Vitae Pharmaceuticals, LLC, priority 2016, dated 2025):
pEC50, pIC50: −log10 of the molar value.

Key:
[1] = target: T1, biotinylated wild-type menin and MLL-AF9 fusion protein (menin/MLL binding) (Homo sapiens, UniProt O00255); assay: Assay 1: menin/MLL binding AlphaLISA assay, wild-type menin; details: Table 30; column head does not say wild-type or mutated menin
T1 construct: made in house; host or cells: menin: E. coli; MLL-AF9-FLAG: HEK293 cells, used as cleared lysate
T1 sequence (O00255 1-610): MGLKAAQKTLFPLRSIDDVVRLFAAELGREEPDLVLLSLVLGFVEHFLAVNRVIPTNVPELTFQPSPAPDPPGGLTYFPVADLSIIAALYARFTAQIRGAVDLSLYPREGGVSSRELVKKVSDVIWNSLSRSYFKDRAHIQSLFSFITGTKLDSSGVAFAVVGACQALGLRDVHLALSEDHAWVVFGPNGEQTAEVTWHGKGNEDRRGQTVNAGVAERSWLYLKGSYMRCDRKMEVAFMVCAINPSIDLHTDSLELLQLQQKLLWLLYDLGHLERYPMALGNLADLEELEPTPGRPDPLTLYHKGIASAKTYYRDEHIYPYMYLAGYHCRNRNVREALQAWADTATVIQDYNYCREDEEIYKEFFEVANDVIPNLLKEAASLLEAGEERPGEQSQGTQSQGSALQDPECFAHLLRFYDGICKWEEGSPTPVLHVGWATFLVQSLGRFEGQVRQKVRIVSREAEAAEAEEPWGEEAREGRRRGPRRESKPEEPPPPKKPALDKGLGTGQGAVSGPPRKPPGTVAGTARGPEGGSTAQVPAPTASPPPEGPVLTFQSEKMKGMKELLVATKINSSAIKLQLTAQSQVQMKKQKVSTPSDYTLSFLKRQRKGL
Procedure, shortened: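 Compound was preincubated 30 min at room temperature with biotinylated menin (5 nM) and MLL-AF9-FLAG lysate from HEK293 cells, pH 7.4 buffer with 5% DMSO and DTT. Bead-based Alpha signal after 60 min with streptavidin donor and anti-FLAG acceptor beads; four-parameter logistic fit gave IC50.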

[2] = system: human acute monocytic leukemia cell line MV-4-11; assay: Assay 2: cell proliferation assay (ATP quantitation, CellTiter-Glo), MV-4-11; format: cell-based; details: MV-4-11 cells
Procedure, shortened: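 Read-out is CellTiter-Glo luminescence quantifying ATP. Compound exposure lasted 72 h at 37° C., 5% CO2, with 1.67×10^4 MV-4-11 cells per well in 10% FBS medium, alongside HL-60 toxicity-control cells.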

| pIC50 [1] | pEC50 ([2]; 72 h) | pEC50 ([2]; Homo sapiens, MV4-11, 72 h) | SMILES |
| --- | --- | --- | --- |
| > 7.00 | ≤ 6.00 | – | CC(C)N(C(=O)c1cc(F)ccc1Oc1cncnc1N1CCC2(CC(O)C(Cc3ccc4[nH]c(=O)[nH]c4c3)C2)C1)C(C)C (single isomer, unassigned) [Example 23C, 5-fluoro-2-((4-(7-hydroxy-8-((2-oxo-2,3-dihydro-1H-benzo[d]imidazol-5-yl)methyl)-2-azaspiro[4.4]nonan-2-yl)pyrimidin-5-yl)oxy)-N,N-diisopropylbenzamide] |
| > 7.00 | – | 6.00 to 7.00 | Cc1c(C#N)cccc1-c1cc(F)ccc1Oc1cncnc1N1CCC2(CCN(Cc3ccc4[nH]c(=O)[nH]c4c3)C2)C1 (stereo not drawn) [Example 230, 5′-fluoro-2-methyl-2′-((4-(7-((2-oxo-2,3-dihydro-1H-benzo[d]imidazol-5-yl)methyl)-2,7-diazaspiro[4.4]nonan-2-yl)pyrimidin-5-yl)oxy)-[1,1′-biphenyl]-3-carbonitrile] |
| > 7.00 | – | 6.00 to 7.00 | CCn1c(=O)[nH]c2cc(CN3CCC4(CCN(c5ncncc5Oc5ccc(F)cc5C(=O)N(C)C(C)C)C4)C3)ccc21 (stereo not drawn) [Example 128, 2-((4-(7-((1-ethyl-2-oxo-2,3-dihydro-1H-benzo[d]imidazol-5-yl)methyl)-2,7-diazaspiro[4.4]nonan-2-yl)pyrimidin-5-yl)oxy)-5-fluoro-N-isopropyl-N-methylbenzamide] |
| > 7.00 | 6.00 to 7.00 | – | CC(C)N(C(=O)c1cc(F)ccc1Oc1cncnc1N1CCC2(CC(Cc3ccc(F)cc3)N(CCO)C2)C1)C(C)C (single isomer, unassigned) [Example 26A, 5-fluoro-2-((4-(8-(4-fluorobenzyl)-7-(2-hydroxyethyl)-2,7-diazaspiro[4.4]nonan-2-yl)pyrimidin-5-yl)oxy)-N,N-diisopropylbenzamide] |
| > 7.00 | – | 6.00 to 7.00 | CC(C)c1ncncc1-c1cc(F)ccc1Oc1cncnc1N1CC2(CN(CC3CCC4(CC3)OCCO4)C2)C1 [Example 64, 2-(1,4-dioxaspiro[4.5]decan-8-ylmethyl)-6-(5-(4-fluoro-2-(4-isopropylpyrimidin-5-yl)phenoxy)pyrimidin-4-yl)-2,6-diazaspiro[3.3]heptane] |
| > 7.00 | – | 6.00 to 7.00 | CC(C)N(C(=O)c1cc(F)ccc1Oc1cncnc1N1CC2(CCN(CC3CCOCC3)CC2)C1)C(C)C [Example 101, 5-fluoro-N,N-diisopropyl-2-((4-(7-((tetrahydro-2H-pyran-4-yl)methyl)-2,7-diazaspiro[3.5]nonan-2-yl)pyrimidin-5-yl)oxy)benzamide] |
| > 7.00 | ≤ 6.00 | – | Cc1cc(C#N)ccc1-c1cc(F)ccc1Oc1cncnc1N1CCC2(CCN(Cc3ccc4[nH]c(=O)[nH]c4c3)C2)C1 (stereo not drawn) [Example 226, 5′-fluoro-2-methyl-2′-((4-(7-((2-oxo-2,3-dihydro-1H-benzo[d]imidazol-5-yl)methyl)-2,7-diazaspiro[4.4]nonan-2-yl)pyrimidin-5-yl)oxy)-[1,1′-biphenyl]-4-carbonitrile] |
| > 7.00 | – | > 7.00 | C=C(C)c1ccccc1-c1cc(F)ccc1Oc1cncnc1N1CCC2(CCN(Cc3ccc4[nH]c(=O)[nH]c4c3)C2)C1 (stereo not drawn) [Example 161, 5-((7-(5-((5-fluoro-2′-(prop-1-en-2-yl)-[1,1′-biphenyl]-2-yl)oxy)pyrimidin-4-yl)-2,7-diazaspiro[4.4]nonan-2-yl)methyl)-1,3-dihydro-2H-benzo[d]imidazol-2-one] |
| > 7.00 | – | 6.00 to 7.00 | COC(=O)N[C@H]1CC[C@H](CN2CCC3(CC2)CN(c2ncncc2Oc2ccc(F)cc2C(=O)N(C)C(C)C)C3)CC1 [Example 95, methyl ((1r,4r)-4-((2-(5-(4-fluoro-2-(isopropyl(methyl)carbamoyl)phenoxy)pyrimidin-4-yl)-2,7-diazaspiro[3.5]nonan-7-yl)methyl)cyclohexyl) carbamate] |
| > 7.00 | – | ≤ 6.00 | CN(C(=O)c1cc(F)ccc1Oc1cncnc1N1CCC2(CCN(Cc3ccc4[nH]c(=O)[nH]c4c3)C2)C1)C(C)(C)C (stereo not drawn) [Example 175, N-(tert-butyl)-5-fluoro-N-methyl-2-((4-(7-((2-oxo-2,3-dihydro-1H-benzo[d]imidazol-5-yl)methyl)-2,7-diazaspiro[4.4]nonan-2-yl)pyrimidin-5-yl)oxy)benzamide] |
| > 7.00 | – | 6.00 to 7.00 | CCN(CC)C(=O)c1cc(F)ccc1Oc1cncnc1N1CCC2(CCN(Cc3ccc4[nH]c(=O)[nH]c4c3)C2)C1 (stereo not drawn) [Example 173, N,N-diethyl-5-fluoro-2-((4-(7-((2-oxo-2,3-dihydro-1H-benzo[d]imidazol-5-yl)methyl)-2,7-diazaspiro[4.4]nonan-2-yl)pyrimidin-5-yl)oxy)benzamide] |
| > 7.00 | – | > 7.00 | CC(C)c1ncncc1-c1cc(F)ccc1Oc1cncnc1N1CC2(CN(C(=O)Cc3ccc(C#N)cc3)C2)C1 [Example 227, 4-(2-(6-(5-(4-fluoro-2-(4-isopropylpyrimidin-5-yl)phenoxy)pyrimidin-4-yl)-2,6-diazaspiro[3.3]heptan-2-yl)-2-oxoethyl)benzonitrile] |
| > 7.00 | 6.00 to 7.00 | – | Cn1c(-c2cc(F)ccc2Oc2cncnc2N2CCC3(CCN(Cc4ccc5[nH]c(=O)[nH]c5c4)C3)C2)c(C2CC2)ccc1=O (single isomer, unassigned) [Example 29B, 5-((7-(5-(2-(3-cyclopropyl-1-methyl-6-oxo-1,6-dihydropyridin-2-yl)-4-fluorophenoxy)pyrimidin-4-yl)-2,7-diazaspiro[4.4]nonan-2-yl)methyl)-1,3-dihydro-2H-benzo[d]imidazol-2-one] |
| > 7.00 | – | 6.00 to 7.00 | CC(C)c1ncncc1-c1cc(F)ccc1Oc1cncnc1N1CCC2(CN(C(=O)Cc3ccc(C#N)cc3)C2)C1 [Example 130, 4-(2-(6-(5-(4-fluoro-2-(4-isopropylpyrimidin-5-yl)phenoxy)pyrimidin-4-yl)-2,6-diazaspiro[3.4]octan-2-yl)-2-oxoethyl)benzonitrile] |
| > 7.00 | – | > 7.00 | CC(C)N(C(=O)c1cc(F)ccc1Oc1cncnc1N1CCC2(CCN(Cc3ccc4c(c3)NC(=O)C4(C)C#N)C2)C1)C(C)C (stereo not drawn) [Example 90, 2-((4-(7-((3-cyano-3-methyl-2-oxoindolin-6-yl)methyl)-2,7-diazaspiro[4.4]nonan-2-yl)pyrimidin-5-yl)oxy)-5-fluoro-N,N-diisopropylbenzamide] |
| > 7.00 | – | > 7.00 | CC(C)c1ncncc1-c1cc(F)ccc1Oc1cncnc1N1CC2(CC(NCc3ccc(C#N)cc3)C2)C1 [Example 152, 4-(((2-(5-(4-fluoro-2-(4-isopropylpyrimidin-5-yl)phenoxy)pyrimidin-4-yl)-2-azaspiro[3.3]heptan-6-yl)amino)methyl) benzonitrile] |
| > 7.00 | – | ≤ 6.00 | Cn1c(=O)[nH]c2ccc(CN3CCC4(CCC(c5ncncc5Oc5ccc(F)cc5Cl)C4)C3)cc21 (stereo not drawn) [Example 27, 6-((7-(5-(2-chloro-4-fluorophenoxy)pyrimidin-4-yl)-2-azaspiro[4.4]nonan-2-yl)methyl)-1-methyl-1H-benzo[d]imidazol-2(3H)-one] |
| > 7.00 | – | 6.00 to 7.00 | CC(C)c1ccccc1-c1cc(F)ccc1Nc1cncnc1N1CC2(CN(CC3(O)CCCCC3)C2)C1 [Example 242, 1-((6-(5-((5-fluoro-2′-isopropyl-[1,1′-biphenyl]-2-yl)amino)pyrimidin-4-yl)-2,6-diazaspiro [3.3]heptan-2-yl)methyl) cyclohexan-1-ol] |
| > 7.00 | – | 6.00 to 7.00 | CC(C)c1ncncc1-c1cc(F)ccc1Oc1cncnc1N1CC2(CC(NCc3ccc(F)cc3)CO2)C1 (stereo not drawn) [Example 18, 2-(5-(4-fluoro-2-(4-isopropylpyrimidin-5-yl)phenoxy)pyrimidin-4-yl)-N-(4-fluorobenzyl)-5-oxa-2-azaspiro[3.4]octan-7-amine] |
| > 7.00 | – | 6.00 to 7.00 | CN(C(=O)c1cc(F)ccc1Oc1cncnc1N1CCC2(CCN(Cc3ccc4[nH]c(=O)[nH]c4c3)C2)C1)c1ccccc1 (stereo not drawn) [Example 166, 5-fluoro-N-methyl-2-((4-(7-((2-oxo-2,3-dihydro-1H-benzo[d]imidazol-5-yl)methyl)-2,7-diazaspiro[4.4]nonan-2-yl)pyrimidin-5-yl)oxy)-N-phenylbenzamide] |
| > 7.00 | – | 6.00 to 7.00 | CC(C)c1ncncc1-c1cc(F)ccc1Oc1cncnc1N1CC2(CC(NCC3CCC(C)(C#N)CC3)C2)C1 (stereo not drawn) [Example 140, 4-(((2-(5-(4-fluoro-2-(4-isopropylpyrimidin-5-yl)phenoxy)pyrimidin-4-yl)-2-azaspiro[3.3]heptan-6-yl)amino)methyl)-1-methylcyclohexane-1-carbonitrile] |
